Results from US8481525B2, “Kinase inhibitors and method of treating cancer with same” (University of Health Network, priority 2009, dated 2013).
Where two headings read alike, the source gives them in different places.

Tests used:
human PLK4 = biological target: T1, human PLK4 (Homo sapiens, UniProt O00444); experiment: PLK4 Inhibition Assay (indirect ELISA); format: biochemical
T1 construct: amino terminal GST fusion of residues 1-391 of human PLK4; made in house; host or cells: E. coli
T1 sequence (O00444 1-391): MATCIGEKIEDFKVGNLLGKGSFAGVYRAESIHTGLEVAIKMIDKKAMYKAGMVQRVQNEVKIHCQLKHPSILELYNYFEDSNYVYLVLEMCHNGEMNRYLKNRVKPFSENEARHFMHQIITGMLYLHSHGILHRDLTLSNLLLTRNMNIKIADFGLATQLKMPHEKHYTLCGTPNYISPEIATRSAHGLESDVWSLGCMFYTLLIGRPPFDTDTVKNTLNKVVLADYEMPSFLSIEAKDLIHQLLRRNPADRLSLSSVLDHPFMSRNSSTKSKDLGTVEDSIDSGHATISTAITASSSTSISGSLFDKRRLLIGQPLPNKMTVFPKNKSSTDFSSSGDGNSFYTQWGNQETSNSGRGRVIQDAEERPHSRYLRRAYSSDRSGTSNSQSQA
Method: The protein was purified from clarified cell extracts after induction at 15° C. overnight using glutathione sepharose, gel permeation chromatography, and ion exchange (Resource Q). The resulting protein was dephosphorylated with lambda phosphatase (NEB cat# P0753), and resolved from the phosphatase using gluthione sepharose. The dephosphorylated GST-PLK4 was stored in aliquots at −80° C. until use.
PLK4 activity was measured using an indirect ELISA detection system. […] The colourimetric reaction was allowed to continue for 5 minutes, followed by addition of stop solution (0.5 N sulphuric acid), and quantified by detection at 450 nm with either a monochromatic or filter based plate reader (Molecular Devices M5 or Beckman DTX880, respectively).
Compounds were pre-incubated in the presence of enzyme for 15 minutes prior to addition of ATP and the activity remaining quantified using the above described activity assay. […] The IC50 value was determined using a non-linear 4 point logistic curve fit (XLfit4, IDBS) with the formula; (A+(B/(1+((x/C){grave over ( )}D)))), where A=background value, B=range, C=inflection point, D=curve fit parameter.

Aurora B = biological target: T2, Aurora B (Homo sapiens, UniProt Q96GD4); experiment: Aurora B Inhibition Assay (Z-Lyte); format: biochemical; settings: 128 μM ATP; read-out: Aurora B IC50 Ranges
T2 construct: purchased Invitrogen PV3970
T2 sequence (Q96GD4 whole entry): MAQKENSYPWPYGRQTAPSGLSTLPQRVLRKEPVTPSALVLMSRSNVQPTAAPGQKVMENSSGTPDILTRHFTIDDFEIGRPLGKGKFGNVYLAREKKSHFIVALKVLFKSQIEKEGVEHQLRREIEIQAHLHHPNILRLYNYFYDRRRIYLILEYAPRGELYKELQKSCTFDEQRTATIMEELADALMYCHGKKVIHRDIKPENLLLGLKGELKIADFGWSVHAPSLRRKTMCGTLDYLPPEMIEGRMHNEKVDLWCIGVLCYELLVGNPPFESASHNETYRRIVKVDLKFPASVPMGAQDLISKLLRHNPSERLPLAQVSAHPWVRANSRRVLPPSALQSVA
Method: Aurora B inhibition was determined using the Z-Lyte assay kit from Invitrogen. […] The % inhibition values were determined according to the manufacturer's directions and IC50 values were obtained using a non-linear 4 point logistic curve fit (XLfit4, IDBS)

[1] = system: A549 lung cancer cell line; experiment: Cell growth inhibition, Sulforhodamine B assay (SRB); format: cell-based; settings: Homo sapiens, read-out: Cell Line GI50 Range A-549
Method: (§1) The cells were cultured for 5 days before the Sulforhodamine B assay (SRB) was performed to determine the compound's cell growth inhibition activity.
(§2) Sulforhodamine B (purchased from Sigma, Oakville, ON, Canada) is a water-soluble dye that binds to the basic amino acids of the cellular proteins. Thus, colorimetric measurement of the bound dye provides an estimate of the total protein mass that is related to the cell number. the cells are fixed in situ by gently aspirating off the culture media and adding 50 μl ice cold 10% Trichloroacetic Acid (TCA) per well and incubate at 4° C. for 30-60 min, The plates are washed with water five times and allowed to air dry for 5 min. […] Following staining, plates are washed four times with 1% acetic acid to remove unbound dye and then allowed to air dry for 5 min. […] Absorbance is read at 570 nm.
(§3) The percentage (%) of relative growth inhibition was calculated by comparing to DMSO treated only cells (100%). GI50's were determined for compounds with cytotoxic activity. The GI50 was calculated using GraphPad PRISM software (GraphPad Software, Inc., San Diego, Calif., USA).

[2] = system: HCC1954 basal breast cancer cell line; experiment: as above; format: cell-based; settings: Homo sapiens, 5 days culture, SRB
Method: as §1, §2, §3

[3] = system: MCF-7 luminal breast cancer cell line; experiment: as above; format: cell-based; settings: Homo sapiens, MCF7, 120 h, read-out: Cell Line GI50 Range MCF-7
Method: as §1, §2, §3

[4] = system: MDA-MB-468 basal breast cancer cell line; experiment: as above; format: cell-based; settings: Homo sapiens, 5 days culture, SRB
Method: as §1, §2, §3

[5] = system: SW620 colon cancer cell line; experiment: as above; format: cell-based; settings: Homo sapiens, SW-620, 120 h, read-out: Cell Line GI50 Range SW-620
Method: as §1, §2, §3

Aurora A = biological target: T3, Aurora A (Homo sapiens, UniProt O14965); experiment: Aurora A Inhibition Assay (Z-Lyte); format: biochemical; settings: 1 μM compound; 20 μM ATP; read-out: Aurora A relative inhibition percentage at a dose of 1 μM
T3 construct: purchased Invitrogen PV3612
T3 sequence (O14965 1-403): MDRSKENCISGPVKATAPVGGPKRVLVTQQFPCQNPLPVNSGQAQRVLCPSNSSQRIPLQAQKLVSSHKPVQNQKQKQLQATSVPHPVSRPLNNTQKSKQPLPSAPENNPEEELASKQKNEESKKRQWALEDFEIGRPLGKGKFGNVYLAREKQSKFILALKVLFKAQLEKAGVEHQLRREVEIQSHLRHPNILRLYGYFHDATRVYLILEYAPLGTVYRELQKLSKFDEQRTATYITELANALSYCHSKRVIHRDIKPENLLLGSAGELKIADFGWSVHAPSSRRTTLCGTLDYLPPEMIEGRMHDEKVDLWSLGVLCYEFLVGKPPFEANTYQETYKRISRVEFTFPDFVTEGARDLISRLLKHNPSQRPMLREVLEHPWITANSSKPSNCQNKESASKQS
Method: Aurora A inhibition was determined using the Z-Lyte assay kit from Invitrogen. The assay was performed using the recommended manufacturer's instructions with 20 μM ATP and 12 nM Aurora A (Invitrogen cat # PV3612). The % inhibition values were determined according to the manufacturer's directions and IC50 values were obtained using a non-linear 4 point logistic curve fit (XLfit4, IDBS)

AMPKalpha = experiment: CEREP HTRF kinase selectivity assay; format: biochemical, human
Method: The inhibitory activity of selected compounds of the invention was evaluated against a panel of 45 different kinase enzymes by CEREP, France. The assays were performed using standard HTRF assay methods as documented by CEREP against the human orthologues of Ab1 kinase, Akt1/PKBa, AMPKa, BMX kinase (Etk), Brk, CaMK2a, CaMK4, CDC2/CDK1 (cycB), CHK1, CHK2, c-Met kinase, CSK, EphB4 kinase, ERKI, ERK2 (P42mapk), FGFR2 kinase, FGFR4 kinase, FLT-1 kinase (VEGFR1), FLT-3 kinase, Fyn kinase, 1GF1R kinase, IRK (InsR), JNK 2, KDR kinase (VEGFR2), Lck kinase, Lyn kinase, MAPKAPK2, MEK1/MAP2K1, p38a kinase, p38d kinase, p38 g kinase, PDGFRb kinase, PDKI, PKA, PKCa, PKCb1, PKCb2, PKCg, Ret kinase, ROCK2, RSK2, Src kinase, Syk, and TRKA (Table 3). The % Inhibition was determined by the formula; % Inhibition=100×(1−(experimental value−background value)/(high activity control−background value)).

HUV-EC-C cells = experiment: In Vitro Angiogenesis Assay (tube formation); settings: HUV-EC-C cells on ECMatrix, 4 hr; FIGS. 1 and 2
[6] = 15 μM ATP, read-out: PLK4 IC50 Ranges
[7] = 120 h, A549 lung cancer cell line, 5 days culture, SRB
[8] = 120 h, HCC1954 basal breast cancer cell line, read-out: Cell Line GI50 Range HCC-1954
[9] = MCF-7 luminal breast cancer cell line, 5 days culture, SRB
[10] = 120 h, MDA-MB-468 basal breast cancer cell line, read-out: Cell Line GI50 Range MDA-MB-468
[11] = SW620 colon cancer cell line, 5 days culture, SRB
[12] = HCC1954, 120 h, read-out: Cell Line GI50 Range HCC-1954, HCC1954 basal breast cancer cell line
[13] = MDA-MB-468, 120 h, read-out: Cell Line GI50 Range MDA-MB-468, MDA-MB-468 basal breast cancer cell line
[14] = HCC1954, 120 h, HCC1954 basal breast cancer cell line, read-out: Cell Line GI50 Range HCC-1954

Compound | IC50 (human PLK4; [6]) | IC50 (Aurora B) | GI50 [1, 7] | GI50 [3, 9] | GI50 [4, 10] | GI50 [5, 11] | IC50 (human PLK4) | also measured
COc1ccc2c(c1)[C@@]1(C[C@@H]1c1ccc3c(-c4ccc(N5CCNCC5)cc4)n[nH]c3c1)C(=O)N2 (racemic) [Example A48, (1R*,2S*)-5′-methoxy-2-(3-(4-(piperazin-1-yl)phenyl)-1H-indazol-6-yl)spiro[cyclopropane-1,3′-indolin]-2′-one 2,2,2-trifluoroacetate] | – | < 100 nM | – | – | – | – | < 100 nM | inhibition at 1 µM (Aurora A): < 50%; GI50 ([1]; A549, 120 h): < 100 nM; GI50 [2, 12]: 1000 to 10000 nM; GI50 [3]: < 100 nM; GI50 [4, 13]: < 100 nM; GI50 [5]: 1000 to 10000 nM
O=C1Nc2ccccc2[C@]12C[C@H]2c1ccc2c(I)n[nH]c2c1 (relative stereo) [Example A9, (1R*,2S*)-2-(3-iodo-1H-indazol-6-yl)spiro[cyclopropane-1,3′-indolin]-2′-one] | – | – | – | – | – | – | 100 to 1000 nM | –
COc1ccc2c(c1)[C@]1(C[C@H]1c1ccc3c(-c4ccc(N5CCN(C)CC5)nc4)n[nH]c3c1)C(=O)N2 (relative stereo) [Example A13, (1R*,2S*)-5′-Methoxy-2-(3-(6-(4-methylpiperazin-1-yl)pyridin-3-yl)-1H-indazol-6-yl)spiro[cycloropane-1,3′-indolin]-2′-one] | – | – | – | – | – | – | – | % Inhibition @ 10 uM (AMPKalpha): 8%; anti-angiogenic effect (tube formation, % of control tube count) (HUV-EC-C cells): anti-agiogenic effects at submicromolar concentrations
COc1ccc2c(c1)[C@]1(C[C@H]1c1ccc3c(-c4ccc(N5CCNCC5)cc4)n[nH]c3c1)C(=O)N2 [Example A49, (1R,2S)-5′-methoxy-2-(3-(4-(piperazin-1-yl)phenyl)-1H-indazol-6-yl)spiro[cyclopropane-1,3′-indolin]-2′-oneone 2,2,2-trifluoroacetate] | – | < 100 nM | – | – | – | – | < 100 nM | inhibition at 1 µM (Aurora A): < 50%; GI50 ([1]; A549, 120 h): < 100 nM; GI50 [2, 12]: 1000 to 10000 nM; GI50 [3]: < 100 nM; GI50 [4, 13]: < 100 nM; GI50 [5]: 1000 to 10000 nM

Continued, in another order:

IC50 (human PLK4; [6]) | IC50 (Aurora B) | GI50 [1, 7] | GI50 [3, 9] | GI50 [4, 10] | GI50 [5, 11] | Compound | IC50 (human PLK4) | also measured
< 100 nM | < 100 nM | 1000 to 10000 nM | < 100 nM | 100 to 1000 nM | 1000 to 10000 nM | COc1ccc2c(c1)[C@@]1(C[C@@H]1c1ccc3c(-c4ccc(N5CCNCC5)nc4)n[nH]c3c1)C(=O)N2 (racemic) [Example A21, 4-(5-(6-((1R*,2S*)-5′-Methoxy-2′-oxospiro[cyclopropane-1,3′-indoline]-2-yl)-1H-indazol-3-yl)pyridinium-2-yl)piperazine bis(2,2,2-trifluoroacetate)] | – | GI50 [2, 8]: > 10000 nM
< 100 nM | – | 1000 to 10000 nM | 1000 to 10000 nM | 1000 to 10000 nM | > 10000 nM | COc1ccc2c(c1)[C@@]1(C[C@@H]1c1ccc3c(-c4cccc(CCO)c4)n[nH]c3c1)C(=O)N2 (racemic) [Example A46, (1R*,2S*)-2-(3-(3-(2-hydroxethyl)phenyl)-1H-indazol-6-yl)-5′-methoxy spiro[cyclopropane-1,3′-indolin]-2′-one] | – | GI50 [2, 8]: > 10000 nM
< 100 nM | < 100 nM | < 100 nM | < 100 nM | < 100 nM | < 100 nM | COc1ccc2c(c1)[C@@]1(C[C@@H]1c1ccc3c(-c4ccc(N5CCC(N(C)C)CC5)cc4)n[nH]c3c1)C(=O)N2 (racemic) [Example A119, (1R*,2S*)-2-(3-(4-(4-(dimethlamino)piperidin-yl)phenyl)-1H-indazol-6-yl)-5′-methoxyspiro[cyclopropane-1,3′-indolin]-2′-one 2,2,2-trifluoroacetate] | – | GI50 [2, 14]: 100 to 1000 nM
< 100 nM | < 100 nM | < 100 nM | < 100 nM | < 100 nM | < 100 nM | COc1ccc2c(c1)[C@@]1(C[C@@H]1c1ccc3c(/C=C/c4csc(CN(C)C)c4)n[nH]c3c1)C(=O)N2 (racemic) [Example A181, (1R*,2S*)-2-(3-((E)-2-(5-((dimethylamino)methyl)thiophen-3-yl)vinyl)-1H-indazol-6-yl)-5′-methoxyspiro[cyclopropane-1,3′-indolin]-2′-one 2,2,2-trifluoro acetate] | – | GI50 [2, 14]: 100 to 1000 nM
< 100 nM | < 100 nM | – | – | – | – | COc1ccc2c(c1)[C@]1(C[C@H]1c1ccc3c(/C=C/c4cc(F)c(CN(C)C)c(F)c4)n[nH]c3c1)C(=O)N2 (relative stereo) [Example A215, (1R*,2 S*)-(E)-2-(3-(4-((dimethylamino)methyl)-3,5-difluorostyryl)-1H-indazol-6-yl)-5′-methoxyspiro[cyclopropane-1,3′-indolin]-2′-one 2,2,2-trifluoro acetate] | – | –
